Measurements: patent publication US12264159B2, “Functionalized heterocycles as antiviral agents” (Enanta Pharmaceuticals, Inc., priority 2018, dated 2025)
pEC50: −log10 of the molar value.

Legend:
HBV in 2.2.15 cells = assay: 2.2.15 cells: viral product in cell lysates quantified via quantitative real time PCR; assay type: cell-based, hepatitis B virus (HBV); settings: Hepatitis B virus, 120 h, day 5 post treatment, 50% reduction of viral product vs no drug controls, readout (qPCR, HBsAg or HBeAg) not specified for the column
Procedure, shortened: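 HBV product was measured at day 5 by lysate qPCR or by supernatant HBsAg/HBeAg ELISA, in 2.2.15 cells seeded at 35,000/well and exposed to 5-fold compound dilution series (0.5% DMSO). EC50 is 50% reduction of viral product relative to untreated controls.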

[1] = Compound induced cellular toxicity in HepG2 cells, ATPlite 1Step; assay type: cell-based; settings: human, three days exposure, 50% reduction of total ATP vs no drug controls
Experimental: At day 3, post seeding cells are treated with ATPlite 1Step according to the manufacturer's instructions.

COc1c(-c2cc3n(n2)C[C@@H](C(C)(C)C)n2cc(C(=O)O)c(=O)cc2-3)ccc(F)c1F [Example 69, (R)-6-(tert-butyl)-2-(3,4-difluoro-2-methoxyphenyl)-10-oxo-5,6-dihydro-10H-pyrazolo[1,5-a]pyrido[2,2-c]pyrazine-12-carboxylic acid]
pEC50 (HBV in 2.2.15 cells): > 7.00
CC50 at 3 days [1]: > 25000 nM

CC(C)(C)[C@@H]1Cn2nc(-c3cccc(OC(F)(F)F)c3)cc2-c2cc(=O)c(C(=O)O)cn21 [Example 17, (R)-6-(tert-butyl)-10-oxo-2-(3-(trifluoromethoxy)phenyl)-5,6-dihydro-10H-pyrazolo[1,5-a]pyrido[2,2-c]pyrazine-12-carboxylic acid]
pEC50 (HBV in 2.2.15 cells): > 7.00
CC50 at 3 days [1]: > 25000 nM

COc1ccc(OC)c(-c2cc3n(n2)C[C@@H](C(C)(C)C)n2cc(C(=O)O)c(=O)cc2-3)c1OC [Example 35, (R)-6-(tert-butyl)-10-oxo-2-(2,3,6-trimethoxyphenyl)-5,6-dihydro-10H-pyrazolo[1,5-a]pyrido[2,2-c]pyrazine-12-carboxylic acid]
pEC50 (HBV in 2.2.15 cells): 6.00 to 6.70
CC50 at 3 days [1]: > 25000 nM

CC(C)(C)[C@@H]1Cn2nc(C3CC3)c(-c3ccc(F)c(F)c3)c2-c2cc(=O)c(C(=O)O)cn21 [Example 151, (R)-6-(tert-butyl)-2-cyclopropyl-1-(3,4-difluorophenyl)-10-oxo-5,6-dihydro-10H-pyrazolo[1,5-a]pyrido[2,1-c]pyrazine-9-carboxylic acid]
pEC50 (HBV in 2.2.15 cells): > 7.00
CC50 at 3 days [1]: > 25000 nM

CC(C)(C)[C@@H]1Cn2nc(-c3ccc(F)cc3)c(-c3ccc(F)cc3)c2-c2cc(=O)c(C(=O)O)cn21 [Example 91, (R)-6-(tert-butyl)-1,2-bis(4-fluorophenyl)-10-oxo-5,6-dihydro-10H-pyrazolo[1,5-a]pyrido[2,1-c]pyrazine-9-carboxylic acid]
pEC50 (HBV in 2.2.15 cells): > 7.00
CC50 at 3 days [1]: > 25000 nM

CC(C)(C)[C@@H]1Cn2nc(-c3cccc4c3OCO4)cc2-c2cc(=O)c(C(=O)O)cn21 [Example 26, (R)-2-(benzo[d][1,3]dioxol-4-yl)-6-(tert-butyl)-10-oxo-5,6-dihydro-10H-pyrazolo[1,5-a]pyrido[2,2-c]pyrazine-12-carboxylic acid]
pEC50 (HBV in 2.2.15 cells): > 7.00
CC50 at 3 days [1]: > 25000 nM

CC(C)(C)[C@@H]1Cn2nc(-c3cnco3)cc2-c2cc(=O)c(C(=O)O)cn21 [Example 7, (R)-6-(tert-butyl)-2-(oxazol-5-yl)-10-oxo-5,6-dihydro-10H-pyrazolo[1,5-a]pyrido[2,2-c]pyrazine-12-carboxylic acid]
pEC50 (HBV in 2.2.15 cells): 6.00 to 6.70
CC50 at 3 days [1]: > 25000 nM

CC(C)[C@@H]1Cn2nc(-c3ccccc3)c(-c3ccccc3)c2-c2c(F)c(=O)c(C(=O)O)cn21 [Example 186, (R)-11-fluoro-6-isopropyl-10-oxo-1,2-diphenyl-5,6-dihydro-10H-pyrazolo[1,5-a]pyrido[2,1-c]pyrazine-9-carboxylic acid]
pEC50 (HBV in 2.2.15 cells): > 7.00
CC50 at 3 days [1]: > 25000 nM

COc1ccc(-c2c(C3CC3)nn3c2-c2cc(=O)c(C(=O)O)cn2[C@H](C(C)(C)C)C3)cc1 [Example 158, (R)-6-(tert-butyl)-2-cyclopropyl-1-(4-methoxyphenyl)-10-oxo-5,6-dihydro-10H-pyrazolo[1,5-a]pyrido[2,1-c]pyrazine-9-carboxylic acid]
pEC50 (HBV in 2.2.15 cells): > 7.00
CC50 at 3 days [1]: > 25000 nM

CC(C)[C@@H]1Cn2nc(C3CC3)c(-c3ccccc3)c2-c2cc(=O)c(C(=O)O)cn21 [Example 130, (R)-2-cyclopropyl-6-isopropyl-10-oxo-1-phenyl-5,6-dihydro-10H-pyrazolo[1,5-a]pyrido[2,1-c]pyrazine-9-carboxylic acid]
pEC50 (HBV in 2.2.15 cells): > 7.00
CC50 at 3 days [1]: > 25000 nM

CC(C)(C)[C@@H]1Cn2nc(C3CC3)c(-c3ccccc3O)c2-c2cc(=O)c(C(=O)O)cn21 [Example 165, (R)-6-(tert-butyl)-2-cyclopropyl-1-(2-hydroxyphenyl)-10-oxo-5,6-dihydro-10H-pyrazolo[1,5-a]pyrido[2,1-c]pyrazine-9-carboxylic acid]
pEC50 (HBV in 2.2.15 cells): > 7.00
CC50 at 3 days [1]: > 25000 nM

COc1cccc(-c2cc3n(n2)C[C@@H](C(C)(C)C)n2cc(C(=O)O)c(=O)cc2-3)c1OC [Example 23, (R)-6-(tert-butyl)-2-(2,3-dimethoxyphenyl)-10-oxo-5,6-dihydro-10H-pyrazolo[1,5-a]pyrido[2,2-c]pyrazine-12-carboxylic acid]
pEC50 (HBV in 2.2.15 cells): 6.00 to 6.70
CC50 at 3 days [1]: > 25000 nM

COc1cccc(-c2nn3c(c2-c2cccc(OC)c2)-c2cc(=O)c(C(=O)O)cn2[C@H](C(C)(C)C)C3)c1 [Example 97, (R)-6-(tert-butyl)-1,2-bis(3-methoxyphenyl)-10-oxo-5,6-dihydro-10H-pyrazolo[1,5-a]pyrido[2,1-c]pyrazine-9-carboxylic acid]
pEC50 (HBV in 2.2.15 cells): > 7.00
CC50 at 3 days [1]: > 25000 nM

C[C@@H]1Cn2nc(-c3cccc(F)c3)c(-c3cccc(F)c3)c2-c2cc(=O)c(C(=O)O)cn21 [Example 205, (R)-1,2-bis(3-fluorophenyl)-6-methyl-10-oxo-5,6-dihydro-10H-pyrazolo[1,5-a]pyrido[2,1-c]pyrazine-9-carboxylic acid]
pEC50 (HBV in 2.2.15 cells): > 7.00
CC50 at 3 days [1]: 10000 to 25000 nM

O=C(O)c1cn2c(cc1=O)-c1c(-c3cccc(F)c3)c(-c3cccc(F)c3)nn1C[C@H]2C1COC1 [Example 209, (R)-1,2-bis(3-fluorophenyl)-6-(oxetan-3-yl)-10-oxo-5,6-dihydro-10H-pyrazolo[1,5-a]pyrido[2,1-c]pyrazine-9-carboxylic acid]
pEC50 (HBV in 2.2.15 cells): > 7.00
CC50 at 3 days [1]: > 25000 nM

CC(C)(C)[C@@H]1Cn2ncc(-c3ccccc3)c2-c2cc(=O)c(C(=O)O)cn21 [Example 107, (R)-6-(tert-butyl)-10-oxo-1-phenyl-5,6-dihydro-10H-pyrazolo[1,5-a]pyrido[2,1-c]pyrazine-9-carboxylic acid]
pEC50 (HBV in 2.2.15 cells): > 7.00
CC50 at 3 days [1]: < 10000 nM

CC(C)(C)[C@@H]1Cn2nc(C3CC3)c(-c3cnsc3)c2-c2cc(=O)c(C(=O)O)cn21 [Example 162, (R)-6-(tert-butyl)-2-cyclopropyl-1-(isothiazol-4-yl)-10-oxo-5,6-dihydro-10H-pyrazolo[1,5-a]pyrido[2,1-c]pyrazine-9-carboxylic acid]
pEC50 (HBV in 2.2.15 cells): > 7.00
CC50 at 3 days [1]: > 25000 nM

CC(C)[C@@H]1Cn2nc(C3CC3)c(-c3ccco3)c2-c2cc(=O)c(C(=O)O)cn21 [Example 136, (R)-2-cyclopropyl-1-(furan-2-yl)-6-isopropyl-10-oxo-5,6-dihydro-10H-pyrazolo[1,5-a]pyrido[2,1-c]pyrazine-9-carboxylic acid]
pEC50 (HBV in 2.2.15 cells): > 7.00
CC50 at 3 days [1]: > 25000 nM

CC(C)(C)[C@@H]1Cn2nc(-c3c(F)cccc3C(N)=O)cc2-c2cc(=O)c(C(=O)O)cn21 [Example 53, (R)-6-(tert-butyl)-2-(2-carbamoyl-6-fluorophenyl)-10-oxo-5,6-dihydro-10H-pyrazolo[1,5-a]pyrido[2,2-c]pyrazine-12-carboxylic acid]
pEC50 (HBV in 2.2.15 cells): 6.00 to 6.70
CC50 at 3 days [1]: > 25000 nM

CC(C)(C)[C@@H]1Cn2nc(-c3ccc(F)c(F)c3F)cc2-c2cc(=O)c(C(=O)O)cn21 [Example 44, (R)-6-(tert-butyl)-10-oxo-2-(2,3,4-trifluorophenyl)-5,6-dihydro-10H-pyrazolo[1,5-a]pyrido[2,2-c]pyrazine-12-carboxylic acid]
pEC50 (HBV in 2.2.15 cells): > 7.00
CC50 at 3 days [1]: > 25000 nM
